Experiment [1] addresses T1, TIPE3 (TNFAIP8L3) (Mus musculus, UniProt Q3TBL6).
T1 sequence (Q3TBL6 1-204): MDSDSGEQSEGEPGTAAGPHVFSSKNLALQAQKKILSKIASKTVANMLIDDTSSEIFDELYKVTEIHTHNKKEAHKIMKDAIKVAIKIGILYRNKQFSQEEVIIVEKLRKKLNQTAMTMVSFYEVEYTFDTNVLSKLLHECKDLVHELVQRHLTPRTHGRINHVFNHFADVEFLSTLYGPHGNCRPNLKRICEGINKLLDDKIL
The experiment is described as follows: vesicle sedimentation assay. The format is binding. Particulars: 20 µM protein; 1000 µM vesicles of 10% lipid + 90% PC.

Experiment [2] concerns the target T2, TIPE3 (TNFAIP8L3) (Mus musculus, UniProt Q3TBL6, K33Q/K34Q/K38Q/K42Q).
T2 sequence (Q3TBL6 1-204 K33Q/K34Q/K38Q/K42Q): T1 sequence (Q3TBL6 1-204) with K33Q, K34Q, K38Q, K42Q
The experiment is described as follows: vesicle sedimentation assay. The format is binding. Particulars: 20 µM protein; 1000 µM vesicles of 10% lipid + 90% PC.

Where a chain is given by its changes, count along the chain named. Bounds are passed on as bounds.

PtdIns(3,4,5)P3: the “% protein bound to vesicles” value at TIPE3 (TNFAIP8L3) [1] is on record as more than 60%. In the case of PtdIns(4,5)P2, the “% protein bound to vesicles” value at TIPE3 (TNFAIP8L3) [2] is ~ 30%; on TIPE3 (TNFAIP8L3) [1], more than 60%.

(Values after publication PMC4198483 (Cancer cell, 2014).)
